In patent US8211933B2, “3.3.0 bicyclic GlyT1 inhibitors and methods of making and using same” (Vanderbilt University, priority 2008, dated 2012):
Like-named read-outs stand apart in the source and are kept apart here.

Target: T1, GlyT1 (Homo sapiens, UniProt P48067)
T1 construct: Human placental choriocarcinoma cells endogenously expressing GlyT1 can be cultured using standard conditions; host or cells: JAR human placental choriocarcinoma cells
T1 sequence (P48067 1-706): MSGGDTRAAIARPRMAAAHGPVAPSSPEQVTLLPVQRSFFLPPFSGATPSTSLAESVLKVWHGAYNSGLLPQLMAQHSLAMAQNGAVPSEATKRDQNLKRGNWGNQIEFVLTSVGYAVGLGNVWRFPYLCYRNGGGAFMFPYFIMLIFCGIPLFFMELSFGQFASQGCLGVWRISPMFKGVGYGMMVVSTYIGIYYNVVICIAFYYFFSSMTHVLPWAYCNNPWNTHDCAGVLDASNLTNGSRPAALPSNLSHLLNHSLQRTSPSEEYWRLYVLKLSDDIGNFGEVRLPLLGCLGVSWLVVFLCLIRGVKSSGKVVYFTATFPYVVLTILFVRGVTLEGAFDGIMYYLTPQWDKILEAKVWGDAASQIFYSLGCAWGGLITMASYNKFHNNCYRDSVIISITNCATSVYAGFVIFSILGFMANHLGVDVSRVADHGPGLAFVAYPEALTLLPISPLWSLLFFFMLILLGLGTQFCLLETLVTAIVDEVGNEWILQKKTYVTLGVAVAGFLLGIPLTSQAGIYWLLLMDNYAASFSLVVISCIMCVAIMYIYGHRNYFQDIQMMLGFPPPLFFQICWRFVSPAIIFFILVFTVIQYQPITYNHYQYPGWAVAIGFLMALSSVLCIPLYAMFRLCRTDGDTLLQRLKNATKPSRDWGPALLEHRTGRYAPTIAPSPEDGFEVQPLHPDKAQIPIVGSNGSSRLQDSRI
Test: [14C]-glycine uptake in JAR cells endogenously expressing GlyT1 (Cytostar T scintillation proximity)
Assay type: cell-based
Conditions: for IC50: read-out: Potency (IC50)
Method: Human placental choriocarcinoma cells endogenously expressing GlyT1 can be cultured using standard conditions. Cells can then be grown at 37° C. in a humidified atmosphere 40-48 hours before the assay. Culture medium can be removed from the culture plate, and cells can be incubated with an amount of TBlA buffer with or without the compounds of the present invention for a sufficient period of time. Then an amount of [^14C]-glycine diluted with TBlA can be added to each well. After incubation the microplates can be sealed and counted. Non-specific uptake of [^14C]-glycine can be determined in the presence of unlabeled glycine. To determine potencies, a range of concentrations of the compounds of the present invention can be added to the cells, followed by the fixed concentration of [^14C]-glycine. The concentration of the present compound that inhibited half of the specific uptake of [^14C]glycine (IC50 value) can be determined from the assay data by non-linear curve fitting.
The procedure used was analogous to that disclosed in Williams, J. B.; Mallorga P. J.; Lemaire W.; Williams D. L.; Na S.; Patel S.; Conn J. P.; Pettibone D. J.; Austin C.; Sur C.; “Development of a scintillation proximity assay for analysis of Na+/Cl−-dependent neurotransmitter transporter activity,” ANAL. BIOCHEM.
Cells were plated at a density of 1.3×10^4 cells/well and grown at 37° C. in a humidified atmosphere of 5% CO2 for 40-48 h. Culture medium was removed from the Cytostar T plate and JAR cells were incubated with 30 μl A of TBlA buffer (120 mM NaC1, 2 mM KCl, 1 mM CaCl2, 1 mM MgCl2, 10 mM Hepes, 5 mM L-alanine, pH 7.5 adjusted with 1 M Tris base) with or without multiple concentrations of test compound (added at 2× final concentration) for 1 min. Then 30 μl of [^14C]-glycine (Perkin-Elmer) diluted in TBlA was added to each well to give a final concentration of 10 μM. Cytostar T plates were then incubated in the dark at room temperature for 3 h, sealed with opaque white bottom plate seals (Perkin-Elmer) and clear top plate seals (Topseal A, Perkin-Elmer), and were counted on a Top Count (Packard). Glycine uptake was determined by measuring radioactivity in each well and plotted as a function of concentration of test compound. […] Nonspecific uptake of [^14C]-glycine was determined in the presence of 10 mM cold glycine. [^14C]-taurine (American Radiolabeled Chemicals, Inc.) uptake experiments were performed according to the same protocol except that 10 mM cold taurine was used to determine nonspecific uptake. […] COS-7 cells were transiently transfected with the human GlyT2 cDNA (Origene Technologies Inc., SC303452) using Fugene 6 (Roche) according to the manufacturer's instructions in Dulbecco's modified Eagle's medium (DMEM, Invitrogen) containing 10% Fetal Bovine Serum, 10 mM HEPES, 1 mM sodium pyruvate, penicillin (100 μg/ml), and streptomycin (100 μg/ml). The following day, the cells were plated at a density of 5×10^5 cells/well in Cytostar T plates and maintained at 37° C. in a humidified atmosphere of 5% CO2 for 24 h. GlyT2 glycine uptake experiments were performed according to the same protocol previously described.

| Structure (SMILES) | IC50 | further results |
| --- | --- | --- |
| Cn1cnc(S(=O)(=O)N2CC3CCC(NC(=O)c4ccc(Cl)cc4Cl)C3C2)c1 (centres unmarked) [Compound 5b, 2,4-dichloro-N-(2-(1-methyl-1H-imidazol-4-ylsulfonyl)octahydrocyclopenta[c]pyrrol-4-yl)benzamide] |  | Potency (IC50) (result in words, inhibition of [14C]-glycine uptake (10 μM), JAR cells, 3 h): Inactive |
| Cn1cnc(S(=O)(=O)N2CC3CCC(NC(=O)c4ccccc4Cl)C3C2)c1 (centres unmarked) [Compound 7b, 2-chloro-N-(2-(1-methyl-1H-imidazol-4-ylsulfonyl)octahydrocyclopenta[c]pyrrol-4-yl)benzamide] | 101 nM |  |
| Cn1cnc(S(=O)(=O)N2CC3CCC(NC(=O)c4ccc(Cl)cc4)C3C2)c1 (centres unmarked) [Compound 7c, 4-chloro-N-(2-(1-methyl-1H-imidazol-4-ylsulfonyl)octahydrocyclopenta[c]pyrrol-4-yl)benzamide] | 1030 nM |  |
| Cn1cnc(S(=O)(=O)N2CC3CCC(NC(=O)c4ccccc4C(F)(F)F)C3C2)c1 (centres unmarked) [Compound 7d, N-(2-(1-methyl-1H-imidazol-4-ylsulfonyl)octahydrocyclopenta[c]pyrrol-4-y1)-2-(trifluoromethyl)benzamide] | 78 nM |  |
| Cn1cnc(S(=O)(=O)N2CC3CCC(NC(=O)c4ccc(F)cc4F)C3C2)c1 (centres unmarked) [Compound 7e, 2,4-difluoro-N-(2-(1-methy1-1H-imidazol-4-ylsulfonyl)octahydrocyclopenta[c]pyrrol-4-yl)benzamide] | 925 nM |  |
| Cn1cnc(S(=O)(=O)N2CC3CCC(NC(=O)c4ccccc4F)C3C2)c1 (centres unmarked) [Compound 7f, 2-fluoro-N-(2-(1-methyl-1H-imidazol-4-ylsulfonyl)octahydrocyclopenta[c]pyrrol-4-yl)benzamide] | 1800 nM |  |
| Cn1cnc(S(=O)(=O)N2CC3CCC(NC(=O)c4ccc(Cl)c(Cl)c4)C3C2)c1 (centres unmarked) [Compound 7g, 3,4-dichloro-N-(2-(1-methyl-1H-imidazol-4-ylsulfonyl)octahydrocyclopenta[c]pyrrol-4-yl)benzamide] | 891 nM |  |
| Cn1cnc(S(=O)(=O)N2CC3CCC(NC(=O)c4ccc(F)cc4)C3C2)c1 (centres unmarked) [Compound 7h, 4-fluoro-N-(2-(1-methyl-1H-imidazol-4-ylsulfonyl)octahydrocyclopenta[c]pyrrol-4-yl)benzamide] | 2200 nM |  |
| Cn1cnc(S(=O)(=O)N2CC3CCC(NC(=O)c4c(F)cccc4F)C3C2)c1 (centres unmarked) [Compound 7i, 2,6-difluoro-N-(2-(1-methy1-1H-imidazol-4-ylsulfonyl)octahydrocyclopenta[c]pyrrol-4-yl)benzamide] | 630 nM |  |
| Cn1cnc(S(=O)(=O)N2CC3CCC(NC(=O)c4ccc(F)c(F)c4)C3C2)c1 (centres unmarked) [Compound 7j, 3,4-difluoro-N-(2-(1-methyl-1H-imidazol-4-ylsulfonyl)octahydrocyclopenta[c]pyrrol-4-yl)benzamide] |  | IC50 (inhibition of [14C]-glycine uptake (10 μM), JAR cells, 3 h): 903 nM |
| CCCS(=O)(=O)N1CC2CCC(NC(=O)c3ccc(Cl)cc3Cl)C2C1 (centres unmarked) [Compound 71, 2,4-dichloro-N-(2-(propylsulfonyl)octahydrocyclopenta[c]pyrrol-4-yl)benzamide] | 7000 nM |  |
